In data set [1] the test system is iDCM-CMs. As to the kind of experiment: PCNT / MTOC localization (centriolar, split, perinuclear) in C19-treated iDCM-CMs, quantitated by a blinded observer. Format: cell-based, human. The conditions noted are these: for initiation of the perinuclear MTOC: iDCM-CMs (cDCM-CMs) treated with C19.
Another data set deals with CMs. Conditions: previously shown; cited from earlier work.
Data set [2] relates to iDCM-CMs. In words: Cell shortening (contractility) on Matrigel mattress, edge detection. Format: cell-based, human.
The test system of data set [3] is iDCM-CMs. In words: Sarcomere formation in C19-treated iDCM-CMs (confocal imaging). Format: cell-based, human. The conditions noted are these: C19-treated iDCM-CMs vs untreated iDCM-CMs.
A further data set deals with RTTN. In words: Knockdown of RTTN in zebrafish embryos: incidence of pericardial edema. It counts as in vivo. The conditions noted are these: zebrafish embryos at 48 hours post-fertilization; Vehicle=8.4%. The method, then:
Single mating pairs were bred overnight, and embryos were kept at 28.5° C., consistent with standard practices. Injections were performed using an Eppendorf™ FemtoJet 4i microinjector. Needles were pulled using a Sutter Instrument Co. Flaming/Brown Micropipette Puller Model P-97 with filaments from World Precision Instruments (Item #TW100F-4) (heat=90, pull=30, and velocity=7). The translational blocking morpholino oligonucleotide 5′-[…]-3′ (SEQ ID NO: 41) was purchased from GeneTools™. mRNA was generated from pcDNA-dCas9 (Addgene™) using the mMESSAGE mMACHINE T7 ULTRA Transcription Kit from Invitrogen™. Alt-R CRISPR-Cas9 sgRNA, sgRNA #1: 5′-[…]-3 (SEQ ID NO:42) and sgRNA #2: 5′-[…]-3′ (SEQ ID NO:43) were purchased from Integrated DNA Technologies. Wild-type NHGRI embryos were injected at the 1-2 cell stage with MO (6 ng) or dCas9 mRNA (1 ng) with or without the CRISPRi sgRNA (0.5 ng). At 8 hours post fertilization (hpf), E3 water was replaced with 0.003% 1-phenyl-2-thiourea (PTU) in E3, and the embryos remained in PTU until they were phenotyped for cardiac edema, and heart morphology at 48 hpf.

Turning to `OCCCCOc1nsnc1-c1ccc(Cl)c(Cl)c1` [C19], the figures for the “initiation of the perinuclear MTOC” value in the data set with iDCM-CMs [1] and with iDCM-CMs [1] (listed as C192) were “improved initiation of the perinuclear MTOC” and “restored initiation of the perinuclear MTOC”, respectively. In the data set on iDCM-CMs [1] (iDCM-CMs + 10 μM C19 for 48 hours from D30, D32 CMs, control-CMs 23.1%, untreated iDCM-CMs 7.6%, p=0.0082), the “PCNT perinuclear, % of CMs” value is 23.6%. Moreover, in the data set with CMs, the “centrosome reduction in CMs” value is given as “induce centrosome reduction”. In addition, the “cell shortening versus healthy control-CMs” value with iDCM-CMs [2] (D40 C19-treated iDCM-CMs vs control-CMs, p=0.682 (NS)) is given as “comparable levels of cell shortening”. Also, the “contractility (% cell shortening)” value in the data set with iDCM-CMs [2] (D40 C19-treated iDCM-CMs vs untreated iDCM-CMs, p=0.001) was “significantly improved”. In addition, the sarcomere formation result in the data set on iDCM-CMs [3] is recorded as “improved sarcomere formation”.

On to “MO: translational blocking morpholino oligonucleotide 5′-TCTTTATGAGTGACGATAACTCCAT-3′ (SEQ ID NO: 41) against zebrafish RTTN (all phosphorodiamidate morpholino (PMO))”, for which the “embryos with large pericardial edema” value in the data set with RTTN was found to be 45.6%.
